{
  "source": "patent US11506670B2",
  "about": "“Method of genome-wide direct identification of electrophile-sensing targets” (Cornell University, priority 2018, dated 2022)",
  "key": {"NF-κB-signaling (Ube2V2)": {"tested_on": "NF-κB-signaling (Ube2V2)", "assay": "NF-κB dual luciferase reporter assay after T-REX on Halo-Ube2V2", "assay_type": "cell-based, human", "conditions": "T-REX HNEylation of Ube2V2 in place of Ube2V1", "procedure": "1.5-1.6×10^5 HEK 293T cells were seeded in each well of a 48-well plate. 24 h later, the cells were transfected with 120 ng of the designated HaloTag fusion gene plasmid and 120 ng of NF-kB-Firefly luciferase: pCMV-Renilla luciferase (40:1) mix, using TransIT-2020 transfection agent. 24 h post-transfection, cells were treated with 25 μM Ht-PreHNE or vehicle (corresponding volume of DMSO alone) for 2.5 h, rinsed three times and irradiated with 365 nm UV light for 10 min. The cells were incubated for a further 8 h. For dual luciferase assay, cells in each well were gently washed with 1×DPBS and lysed in 65 μL of 1× passive lysis buffer containing in final concentrations 25 mM Tris (pH 7.8), 2 mM 1,2-CDTA, 2 mM DTT, 1 mg/mL BSA, 1% Triton X-100, and 10% Glycerol. 20 μL of the lysate was transferred to a white opaque 96-well plate (Corning). Firefly luciferase was read after adding 50 μL Firefly substrate (75 mM HEPES pH 8.0, 4 mM MgSO4, 20 mM DTT, 0.1 mM EDTA, 0.53 mM ATP, 0.27 mM Coenzyme-A, 0.47 mM D-Luciferin Firefly). Subsequently, 50 μL of Stop and Glow substrate (7.5 mM sodium acetate pH 5.0, 400 mM sodium sulfate, 10 mM CDTA, 15 mM sodium pyrophosphate, 0.025 mM APMBT, 5.5 μM Coelenterazine) was added and Renilla luciferase activity was measured."}, "[1]": {"tested_on": "Ube2V2 ubiquitination and cellular Ub pools", "assay": "Ubiquitination analysis by IP, K63-TUBE pulldown and western blot in HEK293T cells", "assay_type": "cell-based, human", "procedure": "Cells were lysed in 1×RIPA buffer containing in final concentrations 1× Protease inhibitor, 1 mM sodium orthovanadate and 1 mM PMSF, by rapid freeze-thaw (×3). Cell debris was removed and the supernatant was collected after centrifugation at 18,000×g for 20 min at 4° C. Protein concentration was determined using Bradford assay. 30-50 μg of total lysates were subjected to SDS-PAGE and the gel was transferred onto a PVDF membrane at 100 V for 1 h at 4° C. or at 40 V overnight at 4° C. Membrane was blocked with 10% milk and probed with various antibodies at the indicated dilutions (Table 4, above).\nHEK 293T cells were seeded in 2×60 cm^2 plates. After the cells reached 60% confluence (˜18-24 h), the old media was replaced with 8 mL of fresh complete media. Cells were transfected with 7.5 μg of the designated Halo clone and 30 μL PEI (1 mg/mL) in 600 μL in Opti-MEM media for 24-36 h after which the cells were treated with 25 μM Ht-PreHNE for 2.5 h. Rinsing and light shining protocol were as described above. Cells were harvested, pooled, washed twice with chilled 1×DPBS and flash frozen. Cell lysis was performed in 100-200 μL per 1.5×10^6 cells of either: lysis buffer [containing in final concentrations 50 mM HEPES (pH 7.6), 150 mM NaCl, 1% Nonidet P-40 and 1× Roche cOmplete, mini, EDTA-free protease inhibitor cocktail] for Flag pull down; or RIPA buffer [containing in final concentrations 50 mM HEPES (pH 7.6), 150 mM NaCl, 1% Nonidet P-40, 0.1% SDS, 0.25% sodium deoxycholate, and 1× Roche cOmplete, mini, EDTA-free protease inhibitor cocktail] for HA pull down, followed by rapid freeze-thaw cycles (×3). Lysate was clarified by centrifugation at 18,000×g for 10 min at 4° C. Total protein concentration was determined using Bradford assay with BSA as standard. The lysate was subsequently diluted to 2 mg/mL with binding buffer containing in final concentrations 50 mM HEPES (pH 7.6), 150 mM NaCl, 1× Roche cOmplete, mini, EDTA-free protease inhibitor cocktail, and 0.1% Tween-20. This diluted lysate was subjected to either 50-100 μL bed volume of ANTI-FLAG® M2 affinity gel (A2220, Sigma) or monoclonal anti-HA-agarose (clone HA-7, A2095, Sigma) that had been pre-equilibrated with the binding buffer above. The sample was incubated with beads for 2-3 h at 4° C. by end-over-end rotation after which time the supernatant was removed post-centrifugation at 1000×g (anti-FLAG pull down) or 5000×g (anti-HA pull down) for 3 min. The beads were washed three times at 4° C. with 500 μL wash buffer containing in final concentrations 50 mM HEPES (pH 7.6), 150 mM NaCl, 1× Roche cOmplete, mini, EDTA-free protease inhibitor cocktail, and 0.1% Tween-20, using end-over-end rotation over 10 min during each wash. The bound protein was eluted by either incubating with 0.15 mg/mL 3× flag peptide for 2 h at 4° C. (anti-Flag pull down) or by boiling the beads at 98° C. for 10 min with 30 μL of 3× Laemmeli dye containing 6% βME (anti-HA pull down). The sample was subjected to SDS-PAGE and transferred to a PVDF membrane for western blot analysis described above.\nCells were grown and transfected as described above. After T-REX™ delivery, cells were harvested and lysed in 100-200 μL (˜1.5×10^6 cells) of lysis buffer [containing in final concentrations 50 mM HEPES (pH 7.6), 300 nM Biotin K63-TUBE, 150 mM NaCl, 5 mM EDTA, 3 mM 1,10-phenanthroline, 5 mM NEM, 20 μM PR-619, 1% Nonidet P-40 and 1× Roche cOmplete, mini, EDTA-free protease inhibitor cocktail] according to manufactures' manual (Biotin K63 TUBE, Lifesensors). Lysate was clarified by centrifugation at 18,000×g for 10 min at 4° C. Total protein concentration was determined using Bradford assay using BSA as standard. […]"}},
  "data": [
    {"smiles": "CCCCCC(O)/C=C/C=O", "note": "(stereo not shown) [HNE, 4-hydroxynonenal]", "values": [
      {"measurement": "NF-κB-pathway activation", "setting": "NF-κB-signaling (Ube2V2)", "result": "did not result in NF-κB-pathway activation"},
      {"measurement": "K63-linked total cellular Ub pools", "setting": "[1]; HEK293T", "result": "did not alter K63-linked total cellular Ub pools"},
      {"measurement": "pan cellular poly-Ub-pools", "setting": "[1]; HEK293T", "result": "no effect"},
      {"measurement": "K63-linked ubiquitination of Ube2V2 upon T-REX delivery", "setting": "[1]; cells expressing wt-Ube2V2, not C69S", "result": "significantly upregulated"}
    ]}
  ]
}
